Consider four compounds from US9266839B2, “Trifluoromethyl pyrazolyl guanidine F1F0-ATPase inhibitors and therapeutic uses thereof” (Lycera Corporation, priority 2013, dated 2016).

The nature of data set [1]: Cytotoxicity in Ramos cells. The data set is classed as cell-based. The following applies: human, Ramos cells; mean of thirteen independent experiments; compound dissolved in dimethylsulfoxide; read-out: mean EC50 for cytotoxicity towards Ramos cells. Here is the method:
(§1) Compounds in Table 5 below were tested for activity against F1F0-ATPase by measuring the ability of the compounds to inhibit ATP synthesis. In addition, the compounds were assessed for cytotoxicity in Ramos cells. Inhibition of F1F0-ATPase activity in synthesizing ATP and cytotoxicity in Ramos cells were measured according to the procedures described in K. M. Johnson et al. Chemistry & Biology 2005, 12, 485-496.
(§2) The activity of compound 3-chloro-N-(((3-chloro-5-fluorophenyl)amino)((5-(trifluoromethyl)-1H-pyrazol-3-yl)amino)methylene)benzamide towards F1F0-ATPase and Ramos cells was evaluated by performing multiple times the assay procedures described in Part I. In particular, activity against F1F0-ATPase was evaluated by measuring the ability of the compound to inhibit ATP synthesis in twelve independent experiments. Cytotoxicity towards Ramos cells was measured in thirteen independent experiments. Consistent with the procedure in Part I, the compound was dissolved in dimethylsulfoxide to form a solution that was applied to F1F0-ATPase or Ramos cells, and the assays were performed according to procedures described in K. M. Johnson et al. Chemistry & Biology 2005, 12, 485-496.
(§3) Similarly, EC50 values (for cytotoxicity towards Ramos cells) from multiple replications of the experimental procedure were averaged. The mean EC50 value for 3-chloro-N-(((3-chloro-5-fluorophenyl)amino)((5-(trifluoromethyl)-1H-pyrazol-3-yl)amino)methylene)benzamide for cytotoxicity towards Ramos cells was determined to be 59±6 nM.

In data set [2] the test system is Ramos cells. Nature of the data set: Cytotoxicity in Ramos cells. It counts as cell-based. The following applies: Homo sapiens; cytotoxicity in Ramos cells; read-out: Ramos Cell EC50. Here is the method: as §1, §2, §3
The target of data set [3] is Cytochrome P450 2D6 (Homo sapiens (Human), UniProt P10635). Nature of the data set: Inhibition of Cytochrome P450 2D6 in human liver microsomes. It counts as in vitro ADME. The following applies: 30 minutes incubation with test compound, substrate dextromethorphan 10 μM, read-out: CYP2D6 IC50. Here is the method: Master solutions were prepared containing human liver microsomes (Gibco, 0.2 mg/mL) and MgCl2 (5 mM) in potassium phosphate buffer (10 mM). To aliquots (169 μL) of the microsome solution was added test compound in acetonitrile (1 μL) and DMSO (1 μL) to provide final test compound concentrations of 0, 0.005, 0.05, 0.25, 1, 5, 10, and 25 μM.
NADPH (10 mM) in ultra-pure water (20 μL) was added, and this mixture was incubated at 37° C. for 30 minutes. The enzyme reaction then was initiated by the addition of enzyme substrate (dextromethorphan) dissolved in 1 μL of acetonitrile and 9 μL of ultra-pure water. The final substrate concentration was 10 μM.
After 20 minutes, the incubation mixture was diluted with 3 volumes of cold methanol containing imipramine (200 nM), labetalol (200 nM), and ketoprofen (2 μM) as internal standards. Samples were centrifuged at 16,000 g for 10 minutes, then an aliquot of the supernatant (200 μL) was removed and analyzed by LC/MS/MS.
LC/MS/MS analyses were performed in duplicate using a Shimadzu HPLC and an API 4000 mass spectrometer. Liquid chromatography employed a Phenomenex C18, 5 μm, 50×2 mm column fitted with a guard column. Solvent A was acetonitrile containing 0.1% v/v formic acid. Solvent B was water containing 0.1% v/v formic acid. […]
The formation of metabolites was evaluated by peak area, and data were analyzed using Prism 5.0 software (GraphPad). […]
Background: Liver microsomes are a subcellular fraction often used to study metabolism.

Sequence of Cytochrome P450 2D6 (P10635 whole entry): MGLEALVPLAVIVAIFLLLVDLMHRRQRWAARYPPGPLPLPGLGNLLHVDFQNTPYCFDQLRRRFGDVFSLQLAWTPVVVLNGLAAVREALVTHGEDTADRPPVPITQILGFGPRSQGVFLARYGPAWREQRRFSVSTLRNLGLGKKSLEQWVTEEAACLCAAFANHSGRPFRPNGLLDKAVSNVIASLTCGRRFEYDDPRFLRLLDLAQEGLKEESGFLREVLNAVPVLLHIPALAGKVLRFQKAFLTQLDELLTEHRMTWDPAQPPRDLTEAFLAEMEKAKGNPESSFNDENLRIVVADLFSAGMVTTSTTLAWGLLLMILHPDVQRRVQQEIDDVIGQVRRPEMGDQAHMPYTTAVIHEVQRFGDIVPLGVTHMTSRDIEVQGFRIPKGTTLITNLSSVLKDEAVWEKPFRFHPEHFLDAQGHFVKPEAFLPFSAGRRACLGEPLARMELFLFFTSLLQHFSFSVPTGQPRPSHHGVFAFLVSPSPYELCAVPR

For `O=C(/N=C(/Nc1cc(F)cc(Cl)c1)Nc1cc(C(F)(F)F)[nH]n1)c1cccc(Cl)c1` [Compound 1, 3-chloro-N-(((3-chloro-5-fluorophenyl)amino)((5-(trifluoromethyl)-1H-pyrazol-3-yl)amino)methylene)benzamide], the EC50 – broadly, the concentration that produces a half-maximal response – came out at 59 ± 6 nM in data set [1] and 50 nM in data set [2]. Besides, in data set [3], the IC50 (as a rule, the point on the concentration scale where inhibition reaches its midpoint) worked out at 3200 nM. `O=C(/N=C(/Nc1cccc(Cl)c1)Nc1cc(C(F)(F)F)[nH]n1)c1cccc(Cl)c1` [Compound 2, 3-chloro-N-(((3-chlorophenyl)amino)((5-(trifluoromethyl)-1H-pyrazol-3-yl)amino)methylene)benzamide, reference compound]: in data set [2], the EC50 amounted to 100 nM. The IC50 in data set [3] amounted to 1100 nM. `O=C(/N=C(/Nc1cc(F)cc(Cl)c1)Nc1cc(C(F)F)[nH]n1)c1ccc(Cl)cc1` [Compound 3]: the EC50 in data set [2] was 1840 nM.

Regarding `O=C(/N=C(/Nc1cc(F)cc(Cl)c1)Nc1cc(C(F)(F)F)[nH]n1)c1ccc(Cl)cc1` [Compound 4], the EC50 in data set [2] worked out at 120 nM.
